Test results as given in ChEMBL document CHEMBL1201862, “PubChem BioAssay data set” (2004).
Activity calls are given as the source filed them.

What was measured:
[1] = molecular target: T1, Heat shock 70 kDa protein 1A (Homo sapiens, UniProt P0DMV8); test: Hsp70 inhibitors, biochemical, TR-FRET (AID 786)
[2] = Luminescence Cell-Based Dose Confirmation HTS to Identify Activators of 5'UTR Stem-Loop Driven Alpha-Synuclein mRNA Translation in H4 Neuroglioblastoma Cells. [Related pubchem assays: 1829 (Project Summary), 1814 (Primary HTS)]; assay type: functional
[3] = Luminescence Cell-Based Dose Response HTS to Identify Activators of Luciferase Translation or Activity in H4 […] Cells. [Related pubchem assays: 1829 (Project Summary), 1814 (Primary HTS)]; assay type: functional
[4] = molecular target: T1, Heat shock 70 kDa protein 1A; test: Hsp70 inhibitors, probe displacement, primary screen, biochemical, fluorescence polarization (AID 583)
H4 = test: Luminescence Cell-Based Dose Response HTS to Identify Activators of 5'UTR Stem-Loop Driven Prion Protein mRNA Translation in H4 Neuroglioblastoma Cells. [Related pubchem assays: 1829 (Project Summary), 1814 (Primary HTS)]; assay type: functional; settings: Homo sapiens
[5] = growth suppression of PTEN-null colon cells, dose response, cell-based, HCT116 PTEN knockout (AID 1047); assay type: functional;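 note: HCT116 colon tumor cells with PTEN knocked out; cells exposed to compound for 60 hours before readout; potency for loss of cell viability measured by luminescence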
[6] = molecular target: Protein-tyrosine kinase 2-beta (Homo sapiens, UniProt Q14289);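 note: potency of inhibitors of PYK2 kinase phosphorylation of poly-GT substrate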
Protein-tyrosine kinase 2-beta, sequence (Q14289 whole entry): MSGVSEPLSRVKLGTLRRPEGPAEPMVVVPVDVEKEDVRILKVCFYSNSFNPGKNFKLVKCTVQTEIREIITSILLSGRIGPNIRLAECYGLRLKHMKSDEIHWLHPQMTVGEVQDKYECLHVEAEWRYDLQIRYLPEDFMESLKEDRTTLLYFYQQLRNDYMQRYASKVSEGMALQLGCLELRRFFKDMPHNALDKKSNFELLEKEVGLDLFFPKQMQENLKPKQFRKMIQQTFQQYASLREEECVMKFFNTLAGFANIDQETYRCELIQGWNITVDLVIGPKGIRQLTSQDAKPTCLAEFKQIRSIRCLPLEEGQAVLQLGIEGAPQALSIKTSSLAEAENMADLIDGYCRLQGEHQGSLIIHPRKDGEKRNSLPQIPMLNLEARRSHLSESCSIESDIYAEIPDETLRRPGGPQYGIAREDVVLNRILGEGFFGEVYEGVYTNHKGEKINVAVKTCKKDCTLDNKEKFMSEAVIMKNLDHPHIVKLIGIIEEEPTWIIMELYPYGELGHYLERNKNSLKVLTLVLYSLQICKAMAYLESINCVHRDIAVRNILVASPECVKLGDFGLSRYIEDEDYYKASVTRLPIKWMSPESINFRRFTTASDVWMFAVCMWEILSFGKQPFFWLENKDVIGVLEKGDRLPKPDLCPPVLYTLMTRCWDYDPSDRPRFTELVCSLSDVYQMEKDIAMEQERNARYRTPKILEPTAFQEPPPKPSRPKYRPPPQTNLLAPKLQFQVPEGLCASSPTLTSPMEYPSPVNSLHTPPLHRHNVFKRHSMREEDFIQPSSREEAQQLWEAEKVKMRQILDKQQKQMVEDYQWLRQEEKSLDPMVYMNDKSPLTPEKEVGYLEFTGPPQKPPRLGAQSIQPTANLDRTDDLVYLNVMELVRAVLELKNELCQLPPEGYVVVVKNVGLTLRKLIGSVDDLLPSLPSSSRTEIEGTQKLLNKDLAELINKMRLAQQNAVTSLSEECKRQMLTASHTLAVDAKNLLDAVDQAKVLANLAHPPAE

[7] = growth suppression of beta-catenin-knockout colon cells, dose response, cell-based, HCT116, human colon tumor (AID 1045); assay type: functional;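 note: HCT116 colon tumor cells with beta catenin knocked out; cells exposed to compound for 60 hours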
[8] = Cytotoxicity screening for potential Inhibitors of Bacterial Capsule Biogenesis. [Related pubchem assays (depositor defined):AID488970]; assay type: functional
X-box-binding protein 1 = molecular target: T2, X-box-binding protein 1 (Homo sapiens, UniProt P17861); assay type: functional, Cricetulus griseus;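 note: confirmatory dose-response counter-screen serving a CHOP assay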
T2 sequence (P17861 whole entry): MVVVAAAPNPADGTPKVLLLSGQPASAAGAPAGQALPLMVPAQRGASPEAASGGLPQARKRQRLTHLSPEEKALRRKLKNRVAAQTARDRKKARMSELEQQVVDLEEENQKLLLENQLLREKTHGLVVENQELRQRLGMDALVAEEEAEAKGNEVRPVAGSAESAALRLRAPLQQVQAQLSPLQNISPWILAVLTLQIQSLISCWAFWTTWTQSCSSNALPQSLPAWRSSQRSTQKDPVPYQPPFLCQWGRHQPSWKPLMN

[9] = molecular target: Cyclin-dependent kinase 5/CDK5 activator 1 (Homo sapiens, UniProt Q00535); test: CDK5/p35 kinase inhibitors, dose response, biochemical, cherry-picked samples, set 2 (AID 504545)
[10] = molecular target: Glyceraldehyde-3-phosphate dehydrogenase (Homo sapiens, UniProt P04406)
Glyceraldehyde-3-phosphate dehydrogenase, sequence (P04406 whole entry): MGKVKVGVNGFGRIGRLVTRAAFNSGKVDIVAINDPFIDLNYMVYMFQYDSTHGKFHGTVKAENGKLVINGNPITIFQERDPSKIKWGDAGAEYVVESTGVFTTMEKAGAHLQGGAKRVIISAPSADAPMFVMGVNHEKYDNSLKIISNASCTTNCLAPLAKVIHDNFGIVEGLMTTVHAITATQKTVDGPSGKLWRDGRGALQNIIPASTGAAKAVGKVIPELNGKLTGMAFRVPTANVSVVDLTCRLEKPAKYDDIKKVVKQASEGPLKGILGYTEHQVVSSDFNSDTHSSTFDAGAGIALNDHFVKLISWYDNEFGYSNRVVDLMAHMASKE

[11] = molecular target: T3, Alkaline phosphatase, tissue-nonspecific isozyme (Homo sapiens, UniProt P05186); test: SAR assay for compounds inhibiting TNAP in the absence of phosphate acceptor performed in a luminescent assay. [Related pubchem assays (depositor defined):AID1548, AID1659, AID518]
T3 sequence (P05186 whole entry): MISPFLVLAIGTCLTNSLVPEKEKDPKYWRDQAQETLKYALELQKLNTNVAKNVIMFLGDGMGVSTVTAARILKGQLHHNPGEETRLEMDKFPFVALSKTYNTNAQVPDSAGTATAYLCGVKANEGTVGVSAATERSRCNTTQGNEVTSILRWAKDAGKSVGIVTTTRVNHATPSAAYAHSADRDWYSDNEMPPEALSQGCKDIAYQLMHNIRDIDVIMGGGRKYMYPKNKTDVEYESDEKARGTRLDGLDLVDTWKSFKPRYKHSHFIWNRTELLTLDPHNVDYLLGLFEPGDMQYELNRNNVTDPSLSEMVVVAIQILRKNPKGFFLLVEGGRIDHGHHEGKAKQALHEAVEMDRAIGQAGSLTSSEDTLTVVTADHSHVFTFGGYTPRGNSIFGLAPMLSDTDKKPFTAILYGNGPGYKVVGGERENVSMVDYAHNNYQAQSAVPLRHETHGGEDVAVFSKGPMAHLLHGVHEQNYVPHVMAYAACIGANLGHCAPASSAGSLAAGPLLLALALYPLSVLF

[12] = molecular target: T3, Alkaline phosphatase, tissue-nonspecific isozyme; test: human TNAP enzyme inhibitors, SAR follow-up, biochemical, luminescent, dose response (AID 1056)
Protein Rev = Protein Rev (Human immunodeficiency virus type 1 group M subtype B (isolate HXB2)(HIV-1), UniProt P04618); test: inhibitors of Rev binding to RRE RNA, dose response, biochemical, fluorescence polarization, HIV-1 (AID 434976); design: species or system Human immunodeficiency virus 1
Protein Rev, sequence (P04618 whole entry): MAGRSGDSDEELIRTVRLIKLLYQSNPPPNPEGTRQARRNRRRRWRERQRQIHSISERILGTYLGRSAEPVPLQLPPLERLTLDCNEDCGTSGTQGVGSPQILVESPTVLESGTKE

[13] = molecular target: Female germline-specific tumor suppressor gld-1 (Caenorhabditis elegans, UniProt Q17339); test: inhibitors of GLD-1 binding to TGE RNA, dose response, biochemical, fluorescence polarization, C. elegans (AID 2802);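 note: fluorescence polarization of labeled TGE RNA bound by purified gld-1 protein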
Staphylococcus aureus = test: Inhibitors of Bacterial Quorum Sensing Structure Activity Relationship (SAR) Analysis: Dose Response Assay. [Related pubchem assays: 700, 527 ]; assay type: functional, organism-based
Cysteine protease ATG4B = molecular target: T4, Cysteine protease ATG4B (Homo sapiens, UniProt Q9Y4P1); assay type: functional;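 note: Fluorescence-based dose-response confirmation assay measuring inhibition of ATG4B activity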
T4 sequence (Q9Y4P1 whole entry): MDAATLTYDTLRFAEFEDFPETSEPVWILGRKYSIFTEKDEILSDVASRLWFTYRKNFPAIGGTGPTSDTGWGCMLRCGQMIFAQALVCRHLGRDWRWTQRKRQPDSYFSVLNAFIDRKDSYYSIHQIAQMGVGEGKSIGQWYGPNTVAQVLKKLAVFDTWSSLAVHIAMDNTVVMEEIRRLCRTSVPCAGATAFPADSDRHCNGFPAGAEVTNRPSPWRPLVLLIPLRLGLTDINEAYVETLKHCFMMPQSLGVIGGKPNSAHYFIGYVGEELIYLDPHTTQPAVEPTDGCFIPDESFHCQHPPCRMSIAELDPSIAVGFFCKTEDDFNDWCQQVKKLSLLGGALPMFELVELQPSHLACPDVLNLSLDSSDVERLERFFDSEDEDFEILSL

Cytochrome P450 2C19 = Cytochrome P450 2C19 (Homo sapiens, UniProt P33261); test: Cytochrome panel assay with activity outcomes. Panel member name: p450-cyp2c19 Compounds with AC50 equal or less than 10 uM are considered active; assay type: functional; settings: read-out: AC50
Cytochrome P450 2C19, sequence (P33261 whole entry): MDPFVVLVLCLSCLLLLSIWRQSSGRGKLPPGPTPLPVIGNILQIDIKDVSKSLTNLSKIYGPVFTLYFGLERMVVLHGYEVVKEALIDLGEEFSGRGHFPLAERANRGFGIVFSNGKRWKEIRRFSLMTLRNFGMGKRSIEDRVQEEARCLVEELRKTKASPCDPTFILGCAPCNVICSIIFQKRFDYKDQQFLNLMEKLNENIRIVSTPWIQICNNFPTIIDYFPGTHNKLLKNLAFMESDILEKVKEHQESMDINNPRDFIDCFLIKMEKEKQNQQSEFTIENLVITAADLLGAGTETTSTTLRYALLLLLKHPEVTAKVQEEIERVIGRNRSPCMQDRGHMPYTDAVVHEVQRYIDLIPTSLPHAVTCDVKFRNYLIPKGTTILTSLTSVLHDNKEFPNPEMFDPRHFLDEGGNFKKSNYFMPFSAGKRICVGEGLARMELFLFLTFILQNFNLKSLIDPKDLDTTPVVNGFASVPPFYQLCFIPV

Phospholipase A2 = Phospholipase A2 (Homo sapiens, UniProt P04054); assay type: functional;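 note: confirmatory dose-response counterscreen on phospholipase A2, testing hits that came from an ultra-high-throughput screen for ATG4B inhibitors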
Phospholipase A2, sequence (P04054 whole entry): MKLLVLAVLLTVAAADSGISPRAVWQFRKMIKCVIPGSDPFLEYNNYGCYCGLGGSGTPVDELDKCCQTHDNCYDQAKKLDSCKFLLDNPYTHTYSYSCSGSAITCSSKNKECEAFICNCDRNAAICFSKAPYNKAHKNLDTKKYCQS

Cytochrome P450 3A4 = Cytochrome P450 3A4 (Homo sapiens, UniProt P08684);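 note: CYP3A4 tested as one member of a cytochrome P450 panel screen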
[14] = molecular target: G-protein coupled receptor 35 (Homo sapiens, UniProt Q9HC97); test: GPR35 antagonists blocking zaprinast-driven arrestin recruitment, primary screen, imaging, U2OS, beta-arrestin-GFP, zaprinast agonist (AID 2058); assay type: functional;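 note: antagonist potency meaning inhibition of agonist-induced arrestin redistribution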
G-protein coupled receptor 35, sequence (Q9HC97 whole entry): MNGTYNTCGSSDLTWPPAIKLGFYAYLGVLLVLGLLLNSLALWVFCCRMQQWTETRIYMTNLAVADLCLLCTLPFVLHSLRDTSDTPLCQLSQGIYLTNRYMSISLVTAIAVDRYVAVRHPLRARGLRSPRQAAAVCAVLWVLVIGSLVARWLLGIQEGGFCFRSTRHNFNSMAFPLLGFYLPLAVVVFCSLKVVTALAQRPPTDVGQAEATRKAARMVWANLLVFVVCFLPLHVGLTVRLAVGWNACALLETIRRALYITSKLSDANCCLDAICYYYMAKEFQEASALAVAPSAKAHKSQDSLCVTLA

Tumor necrosis factor = Tumor necrosis factor (Homo sapiens, UniProt P01375); test: TNFa-triggered NF-kB activation inhibitors, SAR follow-up, cell-based, revised (AID 2337); assay type: functional
Tumor necrosis factor, sequence (P01375 whole entry, the tested form may be a part): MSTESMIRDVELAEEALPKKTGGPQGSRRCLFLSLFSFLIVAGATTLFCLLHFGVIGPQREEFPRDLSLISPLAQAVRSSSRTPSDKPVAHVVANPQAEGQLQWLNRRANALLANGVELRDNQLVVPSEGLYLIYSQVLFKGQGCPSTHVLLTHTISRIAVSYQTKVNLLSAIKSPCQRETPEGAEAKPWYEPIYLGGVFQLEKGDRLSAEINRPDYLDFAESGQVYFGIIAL

[15] = molecular target: T5, Nucleotide-binding oligomerization domain-containing protein 1 (Homo sapiens, UniProt Q9Y239); test: NOD1 signaling inhibitors, SAR follow-up, revised (AID 2333); assay type: functional
T5 sequence (Q9Y239 whole entry): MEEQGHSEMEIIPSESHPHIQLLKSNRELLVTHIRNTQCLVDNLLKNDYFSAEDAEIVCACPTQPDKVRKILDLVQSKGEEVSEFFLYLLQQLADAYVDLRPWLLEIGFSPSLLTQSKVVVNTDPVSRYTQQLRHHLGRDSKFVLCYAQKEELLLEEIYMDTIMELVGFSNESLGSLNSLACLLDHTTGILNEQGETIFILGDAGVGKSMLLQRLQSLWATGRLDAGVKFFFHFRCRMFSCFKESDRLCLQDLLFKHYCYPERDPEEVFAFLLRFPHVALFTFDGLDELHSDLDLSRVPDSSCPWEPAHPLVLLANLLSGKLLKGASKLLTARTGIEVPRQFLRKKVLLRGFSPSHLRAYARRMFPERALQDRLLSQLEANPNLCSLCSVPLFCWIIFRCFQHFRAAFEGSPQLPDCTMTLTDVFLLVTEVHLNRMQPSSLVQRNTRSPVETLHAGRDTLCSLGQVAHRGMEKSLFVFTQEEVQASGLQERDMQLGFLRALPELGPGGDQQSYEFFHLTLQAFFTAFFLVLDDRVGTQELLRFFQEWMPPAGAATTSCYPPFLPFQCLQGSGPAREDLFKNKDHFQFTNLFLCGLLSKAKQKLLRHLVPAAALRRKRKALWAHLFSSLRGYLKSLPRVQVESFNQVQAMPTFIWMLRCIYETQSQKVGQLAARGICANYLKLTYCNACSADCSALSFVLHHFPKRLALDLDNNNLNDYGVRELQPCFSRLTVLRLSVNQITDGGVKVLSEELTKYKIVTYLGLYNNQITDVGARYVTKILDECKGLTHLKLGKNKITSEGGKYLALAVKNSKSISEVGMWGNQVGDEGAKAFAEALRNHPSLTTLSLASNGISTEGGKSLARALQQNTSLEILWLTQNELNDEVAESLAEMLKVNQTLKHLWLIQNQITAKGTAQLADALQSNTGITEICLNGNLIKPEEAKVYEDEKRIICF

Interleukin-8 = Interleukin-8 (Homo sapiens, UniProt P10145); test: SAR analysis of tumor necrosis factor alpha (TNF-alpha) induced IL-8 secretion in MCF-7/NOD1 cells. [Related pubchem assays (depositor defined):AID1575, AID2250, AID2260]; assay type: functional, cell-based
Interleukin-8, sequence (P10145 whole entry, the tested form may be a part): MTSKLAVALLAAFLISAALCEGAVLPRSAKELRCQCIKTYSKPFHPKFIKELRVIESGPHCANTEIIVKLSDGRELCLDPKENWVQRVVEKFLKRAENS

[16] = molecular target: Nucleotide-binding oligomerization domain-containing protein 2 (Homo sapiens, UniProt Q9HC29); test: PubChem AID 2334; assay type: functional
HEK293 [17] = test: cells; settings: Homo sapiens
HEK293 [18] = test: PMA/Ionomycin induced NF-kB luciferase assay in 293- NF-kB-Luc stable cells. [Related pubchem assays: 1299, 1270, 1295, 1375, 1287, 1281, 1293, 1291, 1289, 1280, 465, 1364, 1282, 1372, 1365, 1370, 1367, 1366, 1269, 1373, 1292, 1290, 1302, 1371, 1283, 1271, 1294, 1374, 1368, 1369 ]; assay type: functional, cell-based; settings: Homo sapiens
[19] = molecular target: Luciferin 4-monooxygenase (Photinus pyralis, UniProt P08659); test: In vitro luciferase assay using purified luciferase. [Related pubchem assays: 1299, 1270, 1295, 1375, 1287, 1281, 1293, 1291, 1289, 1280, 465, 1364, 1282, 1372, 1365, 1370, 1367, 1366, 1266, 1373, 1292, 1290, 1302, 1371, 1283, 1271, 1294, 1374, 1368, 1369 ]
Luciferin 4-monooxygenase, sequence (P08659 whole entry): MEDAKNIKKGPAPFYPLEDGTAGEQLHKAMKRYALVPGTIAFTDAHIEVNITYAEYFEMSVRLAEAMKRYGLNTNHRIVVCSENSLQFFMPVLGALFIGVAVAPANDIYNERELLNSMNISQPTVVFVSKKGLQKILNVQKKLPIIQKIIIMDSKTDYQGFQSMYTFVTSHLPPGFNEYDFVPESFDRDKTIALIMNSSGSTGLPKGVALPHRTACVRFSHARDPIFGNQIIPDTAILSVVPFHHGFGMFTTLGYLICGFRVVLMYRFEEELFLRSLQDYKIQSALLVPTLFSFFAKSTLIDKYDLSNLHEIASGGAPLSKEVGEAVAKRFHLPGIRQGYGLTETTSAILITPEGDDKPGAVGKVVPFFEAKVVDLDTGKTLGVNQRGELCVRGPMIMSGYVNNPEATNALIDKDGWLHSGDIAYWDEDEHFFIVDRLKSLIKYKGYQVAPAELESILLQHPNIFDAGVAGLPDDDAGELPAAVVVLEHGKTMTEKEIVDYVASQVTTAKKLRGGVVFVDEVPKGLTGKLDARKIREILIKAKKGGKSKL

HEK293 [20] = test: Cytotoxicity assay in HEK293 cells. [Related pubchem assays (depositor defined):AID1266, AID1269, AID1270, AID1271, AID1280, AID1281, AID1282, AID1283, AID1287, AID1289, AID1290, AID1291, AID1292, AID1293, AID1294, AID1295, AID1299, AID1302, AID1364, AID1365, AID1366, AID1367, AID1369, AID1370, AID1371, AID1372, AID1373, AID1374, AID1375, AID1384 …; assay type: functional, cell-based; settings: Homo sapiens
[21] = molecular target: Signal transducer and activator of transcription 3 (Homo sapiens, UniProt P40763); test: STAT3 activators, late-stage profile, late-stage follow-up, cell-based, STAT1 reporter, BCL3 qPCR, cytotoxicity, panel member STAT3 Activation (AID 2049)
Signal transducer and activator of transcription 3, sequence (P40763 whole entry): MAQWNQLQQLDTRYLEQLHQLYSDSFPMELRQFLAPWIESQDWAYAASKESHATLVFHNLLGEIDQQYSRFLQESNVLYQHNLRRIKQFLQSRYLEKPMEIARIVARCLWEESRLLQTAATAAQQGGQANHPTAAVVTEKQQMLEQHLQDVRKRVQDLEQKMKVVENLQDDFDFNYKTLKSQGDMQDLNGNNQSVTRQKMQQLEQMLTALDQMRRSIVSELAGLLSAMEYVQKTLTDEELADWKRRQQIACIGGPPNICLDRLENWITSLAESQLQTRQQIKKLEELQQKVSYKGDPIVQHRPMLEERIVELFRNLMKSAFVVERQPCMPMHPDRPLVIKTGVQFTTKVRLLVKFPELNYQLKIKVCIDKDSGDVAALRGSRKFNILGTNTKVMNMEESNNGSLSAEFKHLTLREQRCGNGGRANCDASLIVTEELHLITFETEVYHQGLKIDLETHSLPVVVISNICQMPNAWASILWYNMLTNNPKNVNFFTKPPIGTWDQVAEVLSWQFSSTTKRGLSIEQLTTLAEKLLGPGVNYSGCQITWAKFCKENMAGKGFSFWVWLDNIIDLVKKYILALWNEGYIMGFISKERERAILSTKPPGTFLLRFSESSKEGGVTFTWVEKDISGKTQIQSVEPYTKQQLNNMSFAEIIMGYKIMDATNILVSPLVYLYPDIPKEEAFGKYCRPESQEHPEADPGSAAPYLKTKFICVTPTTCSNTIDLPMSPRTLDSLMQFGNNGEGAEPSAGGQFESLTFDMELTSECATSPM

Vero = test: Vero E6 cell cytotoxicity, SAR follow-up, cytotoxicity control for West Nile virus antiviral project, synthesized analogs (AID 2244); assay type: functional; settings: Chlorocebus sabaeus

T1 sequence (P0DMV8 whole entry): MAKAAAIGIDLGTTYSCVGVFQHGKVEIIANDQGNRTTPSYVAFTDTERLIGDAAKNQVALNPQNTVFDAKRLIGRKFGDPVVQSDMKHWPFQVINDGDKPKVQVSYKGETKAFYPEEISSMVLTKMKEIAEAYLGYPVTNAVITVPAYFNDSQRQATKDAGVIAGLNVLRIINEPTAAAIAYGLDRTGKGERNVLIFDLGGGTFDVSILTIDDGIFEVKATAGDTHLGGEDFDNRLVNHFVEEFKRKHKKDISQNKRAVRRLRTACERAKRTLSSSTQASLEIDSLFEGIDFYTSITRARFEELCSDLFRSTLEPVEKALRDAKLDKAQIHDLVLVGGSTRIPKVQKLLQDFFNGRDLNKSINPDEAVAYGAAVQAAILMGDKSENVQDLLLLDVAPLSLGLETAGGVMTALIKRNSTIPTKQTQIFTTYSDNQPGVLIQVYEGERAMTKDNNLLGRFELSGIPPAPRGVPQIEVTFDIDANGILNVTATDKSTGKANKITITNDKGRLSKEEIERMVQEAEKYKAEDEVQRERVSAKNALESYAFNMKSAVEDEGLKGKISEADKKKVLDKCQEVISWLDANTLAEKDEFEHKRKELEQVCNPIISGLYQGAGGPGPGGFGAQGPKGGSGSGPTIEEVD

## O=C(ONc1ccc(N=NC(=O)c2ccccc2O)cc1)c1ccccc1
[1]
  IC50: > 100 µM (not active)
[2]
  EC50: > 120 µM (not active)
[3]
  EC50: 10.1 µM (active)
[4]
  IC50: 11.7 µM (active)
H4
  EC50: 28.8 µM (active)
[5]
  EC50: 20 µM (active)
[6]
  IC50: 5.49 µM (active)
[7]
  EC50: 21.1 µM (active)
[8]
  CC50: 45.1 µM (active)
X-box-binding protein 1
  Absolute IC50 (XBP1): 10 µM

## CC(C)n1cnc2c(Nc3cccc(F)c3)nc(NCCO)nc21
[9]
  AC50: 5.86 µM (active)

## O=C(NCCO)c1cc(-c2ccc(Cl)c(Cl)c2Cl)n[nH]1
[10]
  IC50: > 10 µM (inconclusive)
[11]
  IC50: 0.00422 µM (active)
[12]
  IC50: 0.00744 µM (active)

## COc1ccc(/C=C(\CC(=O)O)c2nc3ccccc3s2)cc1O
Protein Rev
  IC50: > 75.4 µM (not active)
[13]
  IC50: 2.43 µM (active)

## Cc1c(Cl)cccc1Nc1ccccc1C(=O)O [TOLFENAMIC ACID]
Staphylococcus aureus
  IC50: 0.459 µM (active)
Cysteine protease ATG4B
  IC50: 8.17 µM (active)
Cytochrome P450 2C19
  AC50: 15.8 µM (inconclusive)
Phospholipase A2
  IC50: 7.74 µM (active)
Cytochrome P450 3A4
  AC50: inconclusive

## COc1ccc(/C=C\C(=O)NCC(=O)N/N=C/c2ccc(O)cc2O)cc1
[14]
  IC50: 1.16 µM (active)

## O=C(O)c1c(NC(=O)N2CCOCC2)sc2c1CCCC2
Tumor necrosis factor
  IC50: > 20 µM (inactive)
[15]
  IC50: 1.47 µM (active)
Interleukin-8
  IC50: > 25 µM (inactive)
[16]
  IC50: > 20 µM (inactive)
HEK293 [17]
  IC50: > 20 µM (inactive)

## COc1ccc(CNC(=O)c2ccc([N+](=O)[O-])o2)cc1
HEK293 [18]
  EC50: 4.24 µM (not active)
[19]
  EC50: > 8 µM (not active)
HEK293 [20]
  EC50: > 8 µM (inactive)

## Nc1c(C(=O)Nc2ccccc2)noc1C(=O)c1ccccc1
[21]
  EC50: > 55.7 µM (inactive)

## COc1ccc(-c2csc(NC(=O)c3ccccc3F)n2)cc1
Vero
  CC50: > 40 µM (active)
